The results in this text go back to patent US20110028420A1, “Regression of Established Atherosclerotic Plaques, and Treating Sudden-Onset Asthma Attacks, using PARP Inhibitors” (priority 2008, published 2011).

One assay has as its system CCR2. The experiment in a line: Expression of the MCP-1 receptor CCR2. In kind it is in vivo. As to conditions: TIQ-A-treated mice.
A further assay concerns MCP-1. The experiment in a line: Quantitative RT-PCR of MCP-1 in thoracic aorta. In kind it is in vivo, mice. As to conditions: normalized versus β-actin. An excerpt:
RNA was extracted from thoracic aortas, and cDNA was generated by standard methods. PCR Primers for MCP-1 and for actin were as described in C. Hans et al., “Thieno[2,3-c]isoquinolin-5-one (TIQ-A), a potent poly(ADP-ribose) polymerase inhibitor, promotes atherosclerotic plaque regression in high fat diet-fed ApoE-deficient mice: effects on inflammatory markers and lipid content,” J. Pharm. Exp. Ther., vol. 329, pp. 150-158 (2009, published online Jan. 5, 2009). Amplification, detection, and data analysis were performed with the iCycler real-time PCR system (Bio-Rad Laboratories, Hercules, Calif.).
Several pathways may play a role in the regression of plaques, including some that interfere with the recruitment and retention of monocytes, macrophages and foam cells, cells that appear to be required for the maintenance of advanced plaques. In particular, the continuing recruitment of macrophages into lesions is considered a major factor in maintaining the size and complexity of atherosclerotic plaques. […] To confirm that the decrease in CD68-positive cells was associated with reduced expression of chemotactic factors, we used quantitative RT-PCR to monitor the effect of TIQ-A on MCP-1 expression. We measured transcription of the MCP-1 gene in the thoracic aorta using primers specific for murine MCP-1. Measured values were normalized versus measured levels of transcription of the β-actin gene.

Another assay deals with IL-4, IL-5 and IL-13. The experiment in a line: Th2 cytokines in BAL fluid of OVA-challenged mice (Bio-Rad Bioplex). In kind it is in vivo. As to conditions: BAL 24 hours after challenge; TIQ-A after versus before OVA challenge. On the procedure:
(§1) Mice were bred in a pathogen-free facility at the Louisiana State University Health Science Center (LSUHSC), New Orleans, La., and were given unlimited access to sterilized chow and water. Animal maintenance, experimental protocols, and procedures were approved by the LSUHSC Animal Care & Use Committee. C57BL/6 mice were purchased from Jackson Laboratories (Bar Harbor, Me.). Six-week old C57BL/6 mice (n z 5) were sensitized with two, 100 μg i.p. injections of Grade V chicken ovalbumin (OVA) (Sigma-Aldrich, St. Louis Mo.), mixed with 2 mg aluminum hydroxide in saline. The two injections were given seven days apart. One week after the second sensitization the mice were placed in a Plexiglas chamber and challenged with aerosolized ovalbumin (3% OVA in saline, generated by a Bennett nebulizer, DeVilbiss, Pa.). The challenged mice were held in the chamber with the aerosolized OVA for 30 min. […]
A final volume of 5 ml saline was used in BAL to assess inflammatory cells (48 hours post OVA-challenge), or 1 ml saline was used to assess cytokines or IgE (24 hours post OVA-challenge). […] Mucin was assessed essentially as described in L. Whittaker et al., Am. […] OVA-specific IgE was quantified by a sandwich ELISA (Serotec, Raleigh, N.C.) essentially as described in Oumona et al. (2006).

A short description of assay [1]: Fasted plasma cholesterol and LDL (Cholestech LDX). The assay is classed as in vivo, mice. As to conditions: after overnight fasting; Group 6. How it is done: The high-fat diet (Harlan Teklad, Madison, Wis.) contained 21% fat by weight (0.15% cholesterol). The regular diet was normal laboratory rodent chow. Controls were given i.p. injections of vehicle three times per week, during the final four weeks. Experimental Groups received i.p. injections of the PARP inhibitor thieno[2,3-c]isoquinolin-5-one (TIQ-A) (Sigma-Aldrich, St Louis, Mo.) at the rate of 3 mg/kg, three times per week, during the last 4 weeks. At the conclusion of each protocol, the mice were fasted, anesthetized with ketamine/xylazine (60 and 3 mg/kg, respectively), and blood was drawn for serum preparation.
Plasma cholesterol and LDL were analyzed using a commercially available kit according to the manufacturer's instructions (Cholestech LDX, Hayward, Calif.).

For the next assay, the system named is TNF. The experiment in a line: Quantitative RT-PCR of TNF. In kind it is in vivo, mice. As to conditions: Group 6.
A further assay deals with C57BL/6 mice. The experiment in a line: Airway hyperresponsiveness: lung resistance to methacholine by forced oscillation. In kind it is in vivo. As to conditions: TIQ-A post-OVA challenge; methacholine 50 mg/ml, 24 hours after OVA exposure. On the procedure: as §1, with “min. Additional groups of mice were treated by the same protocol, except that they received 6 mg/kg TIQ-A (i.p.) 2 hours prior to challenge, 1 hour post-challenge, or 6 hours post-challenge with OVA. Control groups were neither sensitized, nor challenged.” for “min.”
Twenty-four hours after OVA challenge lung resistance to increasing doses of methacholine (MeCh, Sigma; 0, 25, and 50 mg/ml in isotonic saline) was assessed by forced oscillation, essentially as described in D. You et al., Respir. […]

In the case of `O=C1N=C2SCC=C2c2ccccc21` [TIQ-A, thieno[2,3-c]isoquinolin-5-one], the “Expression of the MCP-1 receptor, CCR2” value in the assay on CCR2 was “no difference”. Also, the “Expression of MCP-1 (RT-PCR)” value in the assay with MCP-1 is reported as “significantly reduced”. Moreover, in the assay on IL-4, IL-5 and IL-13, the “Production of IL-4, IL-5 and IL-13 in BAL fluids” value was “more effectively suppressed by administering TIQ-A after the OVA challenge than before challenge”. In addition, in assay [1], the LDL level entry was “significantly lowered” and the Total cholesterol level result is “significantly lowered”. For the same compound, the “TNF expression (quantitative RT-PCR)” value in the assay on TNF is reported as “significantly down-regulated”. In addition, in the assay with C57BL/6 mice, the “Airway hyperresponsiveness to inhaled methacholine” value was “almost completely blocked”.
